According to PubChem BioAssay AID2048 (NMMLSC, 2009):
Activity calls are given as the source filed them.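 The calls were made as follows: active = EC50 at most 30 µM plus a dose-response curve spanning at least 25% response; inactive = the rest.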

Target: Ras-related C3 botulinum toxin substrate 1 (Homo sapiens) (UniProt P63000)
Assay: activated mutant Rac1 GTP binding inhibitors, SAR follow-up, biochemical, pyrazoline analogs, multiplex bead flow cytometry (AID 2048)
Settings: Bead-based flow cytometry, Bodipy-FL-GTP binding to GST-Rac1

Structure (SMILES)	EC50
COc1ccc(C2CC(c3cccc(Br)c3)=NN2c2ccc(S(N)(=O)=O)cc2)cc1 (stereo not given)	inactive
COc1ccc(-c2cc(-c3ccccc3)nn2-c2ccc(S(N)(=O)=O)cc2)cc1	inactive
COc1ccc(C2CC(c3ccccc3)=NN2c2ccc(Cl)c(C(=O)O)c2)cc1OC (stereo not given)	inactive
COc1ccc(C2CC(c3ccccc3C(F)(F)F)=NN2c2ccc(S(N)(=O)=O)cc2)cc1 (stereo not given)	inactive
COc1ccc(C2CC(c3ccc(C(F)(F)F)cc3)=NN2c2ccc(S(N)(=O)=O)cc2)cc1 (stereo not given)	inactive
Cc1ccccc1N1N=C(c2ccccc2)CC1c1ccc(N(C)C)cc1 (stereo not given)	inactive
COc1ccc(C2CC(C(C)(C)C)=NN2c2ccc(S(N)(=O)=O)cc2)cc1 (stereo not given)	inactive
NS(=O)(=O)c1ccc(N2N=C(c3ccccc3)CC2c2ccccc2Cl)cc1 (stereo not given)	inactive
COc1ccc(C2CC(c3ccc(F)cc3)=NN2c2ccc(S(N)(=O)=O)cc2)cc1 (stereo not given)	inactive
NS(=O)(=O)c1ccc(N2N=C(c3ccccc3)CC2c2ccccc2)cc1 (stereo not given)	inactive
Cc1ccccc1C1CC(c2ccccc2)=NN1c1ccc(S(N)(=O)=O)cc1 (stereo not given)	inactive
COc1ccc(C2CC(c3ccccc3)=NN2c2ccc(C(N)=O)cc2)cc1 (stereo not given)	inactive
Fc1ccc(C2=NN(c3cccc(Br)c3)C(c3ccccc3)C2)cc1 (stereo not given)	inactive
COc1ccc(C2CC(c3cccc(Cl)c3)=NN2c2ccc(S(N)(=O)=O)cc2)cc1 (stereo not given)	inactive
COc1ccc(C2CC(c3ccc(N(C)C)cc3)=NN2c2ccc(S(N)(=O)=O)cc2)cc1 (stereo not given)	inactive
COc1ccc(C2=NN(c3cccc(F)c3)C(c3ccc(Cl)cc3)C2)cc1 (stereo not given)	inactive
COc1ccc(C2CC(c3ccc(Br)cc3)=NN2c2ccc(S(N)(=O)=O)cc2)cc1 (stereo not given)	inactive
NS(=O)(=O)c1ccc(N2N=C(c3ccccc3)CC2c2ccc(Br)cc2)cc1 (stereo not given)	inactive
COc1ccccc1N1N=C(c2ccccc2)CC1c1ccccc1 (stereo not given)	inactive
COc1ccc(C2=NN(c3ccccc3)C(c3ccc(OC)c(OC)c3C(=O)O)C2)cc1 (stereo not given)	inactive
COc1ccc(C2CC(c3ccccc3OC)=NN2c2ccc(S(N)(=O)=O)cc2)cc1 (stereo not given)	inactive
NS(=O)(=O)c1ccc(N2N=C(c3ccccc3)CC2c2ccc(Cl)cc2)cc1 (stereo not given)	inactive
COc1ccc(C2CC(c3ccc(Br)cc3)=NN2c2ccccc2Cl)cc1 (stereo not given)	inactive

Structure (SMILES)	EC50
Cc1ccc(-c2cc(C(F)(F)F)nn2-c2ccc(S(N)(=O)=O)cc2)cc1	inactive
O=[N+]([O-])c1ccc(N2N=C(c3ccccc3)CC2c2ccc(O)cc2)cc1 (stereo not given)	inactive
CC(=O)Oc1ccc(C2=NN(c3ccccc3)C(c3ccccc3)C2)cc1 (stereo not given)	inactive
FC(F)(F)c1ccccc1C1CC(c2ccc(Br)cc2)=NN1c1ccccc1 (stereo not given)	inactive
NS(=O)(=O)c1ccc(N2N=C(c3ccccc3)CC2c2cccc(Cl)c2)cc1 (stereo not given)	inactive
COc1ccc(C2CC(c3ccccc3)=NN2c2ccc(S(N)(=O)=O)cc2)cc1OC (stereo not given)	inactive
COc1ccc(C2=NN(c3ccccc3)C(c3ccccc3C(F)(F)F)C2)cc1 (stereo not given)	inactive
CCc1ccc(C2=NN(c3ccc(S(N)(=O)=O)cc3)C(c3ccc(F)cc3)C2)cc1 (stereo not given)	inactive
COc1ccc(C2CC(c3ccccc3F)=NN2c2ccc(S(N)(=O)=O)cc2)cc1 (stereo not given)	inactive
COc1ccc(C2CC(c3ccc(C)cc3)=NN2c2ccc(S(N)(=O)=O)cc2)cc1 (stereo not given)	inactive
Brc1ccc(N2N=C(c3ccccc3)CC2c2ccccc2)cc1 (stereo not given)	inactive
CN(C)c1ccc(C2CC(c3ccccc3)=NN2c2ccccc2)cc1 (stereo not given)	inactive
COc1ccc(C2CC(c3ccccc3)=NN2c2ccc(Cl)c(C(=O)O)c2)cc1 (stereo not given)	inactive
COc1ccc(C2CC(c3cccs3)=NN2c2ccc(S(N)(=O)=O)cc2)cc1 (stereo not given)	inactive
COc1ccc(C2CC(c3ccc(F)cc3)=NN2c2ccccc2)cc1OC (stereo not given)	inactive
COc1ccc(C2CC(c3ccccc3Br)=NN2c2ccc(S(N)(=O)=O)cc2)cc1 (stereo not given)	inactive
COc1ccc(C2CC(c3cccnc3)=NN2c2ccc(S(N)(=O)=O)cc2)cc1 (stereo not given)	inactive
NS(=O)(=O)c1ccc(N2N=C(c3ccccc3)CC2c2cccc(Br)c2)cc1 (stereo not given)	inactive
FC(F)(F)c1cccc(N2N=C(c3ccc(Cl)cc3)CC2c2ccccc2Cl)c1 (stereo not given)	inactive
COc1ccc(C2CC(c3ccsc3)=NN2c2ccc(S(N)(=O)=O)cc2)cc1 (stereo not given)	inactive
Cc1ccccc1N1N=C(c2ccccc2)CC1c1cccc([N+](=O)[O-])c1 (stereo not given)	inactive
O=C(O)c1ccc(N2N=C(c3ccccc3)CC2c2ccccc2)cc1 (stereo not given)	inactive
COc1ccc(C2CC(c3cccc(OC)c3)=NN2c2ccc(S(N)(=O)=O)cc2)cc1 (stereo not given)	inactive

Structure (SMILES)	EC50
COc1ccc(C2=NN(c3ccc(Cl)cc3)C(c3ccccc3F)C2)cc1 (stereo not given)	inactive
Cc1cccc(N2N=C(c3ccccc3)CC2c2ccccc2)c1 (stereo not given)	inactive
Fc1ccccc1C1CC(c2ccc(Br)cc2)=NN1c1ccc(Br)cc1 (stereo not given)	inactive
NS(=O)(=O)c1ccc(N2N=C(c3ccccc3)CC2c2ccccc2Br)cc1 (stereo not given)	inactive
COc1ccc(C2=NN(c3ccccc3F)C(c3ccc(F)cc3)C2)cc1 (stereo not given)	inactive
O=S(=O)(O)c1ccc(N2N=C(c3ccccc3)CC2c2ccccc2)cc1 (stereo not given)	inactive
COc1cccc(C2CC(c3ccccc3)=NN2c2ccc(S(N)(=O)=O)cc2)c1 (stereo not given)	inactive
COc1ccc(C2CC(c3cccc(N(C)C)c3)=NN2c2ccc(S(N)(=O)=O)cc2)cc1 (stereo not given)	inactive
COc1ccc(C2CC(c3ccc(Cl)cc3)=NN2c2ccc(S(N)(=O)=O)cc2)cc1 (stereo not given)	inactive
COc1ccc(C2CC(c3ccncc3)=NN2c2ccc(S(N)(=O)=O)cc2)cc1 (stereo not given)	inactive
COc1ccc(C2CC(c3ccccc3)=NN2c2cccc(S(N)(=O)=O)c2)cc1 (stereo not given)	inactive
COc1ccc(C2CC(c3cccc(C(F)(F)F)c3)=NN2c2ccc(S(N)(=O)=O)cc2)cc1 (stereo not given)	inactive
O=[N+]([O-])c1cccc(C2CC(c3ccc(F)cc3)=NN2c2ccccc2)c1 (stereo not given)	inactive
COc1ccc(C2CC(c3ccccc3Cl)=NN2c2ccc(S(N)(=O)=O)cc2)cc1 (stereo not given)	inactive
Clc1ccc(N2N=C(c3ccccc3)CC2c2ccccc2)cc1 (stereo not given)	inactive
CN(C)c1ccc(C2CC(c3ccc(F)cc3)=NN2c2ccccc2)cc1 (stereo not given)	inactive
COc1ccc(C2CC(c3ccccc3)=NN2c2ccc(C(=O)O)cc2)cc1 (stereo not given)	inactive
COc1ccc(C2CC(c3ccccc3)=NN2c2ccc([N+](=O)[O-])cc2)cc1 (stereo not given)	inactive
COc1ccc(C2CC(c3cccc(C)c3)=NN2c2ccc(S(N)(=O)=O)cc2)cc1 (stereo not given)	inactive
NS(=O)(=O)c1ccc(N2N=C(c3ccc(Br)cc3)CC2c2ccc(F)cc2)cc1 (stereo not given)	inactive
Cc1ccc(C2CC(c3ccccc3)=NN2c2ccc(S(N)(=O)=O)cc2)cc1 (stereo not given)	inactive
COc1ccc(C2=NN(c3ccc(Cl)c(Cl)c3)C(c3ccc(OC)cc3)C2)cc1 (stereo not given)	inactive
COc1ccc(C2CC(C3CCCCC3)=NN2c2ccc(S(N)(=O)=O)cc2)cc1 (stereo not given)	inactive

Structure (SMILES)	EC50
COc1ccccc1C1CC(c2ccccc2)=NN1c1ccccc1 (stereo not given)	inactive
COc1ccccc1C1CC(c2ccccc2)=NN1c1ccc(S(N)(=O)=O)cc1 (stereo not given)	inactive
COc1ccc(C2CC(c3ccc(F)cc3)=NN2c2cc(Cl)ccc2Cl)cc1 (stereo not given)	inactive
COc1ccc(C2CC(c3cccc(F)c3)=NN2c2ccc(S(N)(=O)=O)cc2)cc1 (stereo not given)	inactive
COc1ccc(C2=NN(c3cccc(F)c3)C(c3ccc(OC)cc3)C2)cc1 (stereo not given)	inactive
COc1ccc(C2=NN(c3ccccc3)C(c3ccc(Cl)cc3)C2)cc1 (stereo not given)	inactive
NS(=O)(=O)c1ccc(N2N=C(c3ccc(Cl)cc3)CC2c2ccccc2)cc1 (stereo not given)	inactive
O=S(=O)(c1ccc(N2N=C(c3ccccc3)CC2c2ccccc2)cc1)C(F)F (stereo not given)	inactive
CN(C)c1ccc(C2CC(c3ccccc3)=NN2c2ccc([N+](=O)[O-])cc2)cc1 (stereo not given)	inactive
Cc1cccc(C2CC(c3ccccc3)=NN2c2ccc(S(N)(=O)=O)cc2)c1 (stereo not given)	inactive
O=S(=O)(c1ccc(N2N=C(c3ccc(Br)cc3)CC2c2ccccc2)cc1)C(F)F (stereo not given)	inactive
Clc1cccc(N2N=C(c3ccccc3)CC2c2ccccc2)c1 (stereo not given)	inactive
COc1ccc(C2=NN(c3ccc(S(N)(=O)=O)cc3)C(c3ccc(OC)cc3)C2)cc1 (stereo not given)	inactive
COc1ccc(C2CC(c3ccc(Cl)cc3)=NN2c2ccccc2)cc1OC (stereo not given)	inactive
COc1ccc(C2CC(C)=NN2c2ccc(S(N)(=O)=O)cc2)cc1 (stereo not given)	inactive
COc1ccc(C2CC(c3ccc(F)cc3)=NN2c2cccc(F)c2)cc1OC (stereo not given)	inactive
CN(C)c1ccc(C2CC(c3ccc(Cl)cc3)=NN2c2ccccc2)cc1 (stereo not given)	inactive
COc1ccc(C2CC(c3ccccc3C)=NN2c2ccc(S(N)(=O)=O)cc2)cc1 (stereo not given)	inactive
O=[N+]([O-])c1cccc(C2CC(c3ccccc3)=NN2c2ccccc2)c1 (stereo not given)	inactive
O=[N+]([O-])c1ccc(N2N=C(c3ccccc3)CC2c2ccccc2)cc1 (stereo not given)	inactive
Cc1onc(-c2ccccc2)c1-c1ccc(S(N)(=O)=O)cc1	inactive
CN(C)c1ccc(C2CC(c3ccc(Br)cc3)=NN2c2ccccc2)cc1 (stereo not given)	inactive

Same assay, conditions: Bead-based flow cytometry, Bodipy-FL-GTP binding to GST-Rac1; measured here: Ki calculated from EC50

Structure (SMILES)	Ki [nM]
COc1ccc(C2CC(c3ccc(Br)cc3)=NN2c2ccccc2Cl)cc1 (stereo not given)	60
Cc1ccc(-c2cc(C(F)(F)F)nn2-c2ccc(S(N)(=O)=O)cc2)cc1	3910
COc1ccc(C2CC(c3ccccc3Br)=NN2c2ccc(S(N)(=O)=O)cc2)cc1 (stereo not given)	40
COc1ccc(C2=NN(c3ccc(Cl)cc3)C(c3ccccc3F)C2)cc1 (stereo not given)	3260
COc1ccc(C2=NN(c3ccccc3)C(c3ccc(Cl)cc3)C2)cc1 (stereo not given)	840
O=S(=O)(c1ccc(N2N=C(c3ccc(Br)cc3)CC2c2ccccc2)cc1)C(F)F (stereo not given)	790
COc1ccc(C2CC(c3ccc(Cl)cc3)=NN2c2ccccc2)cc1OC (stereo not given)	10
COc1ccc(C2CC(C)=NN2c2ccc(S(N)(=O)=O)cc2)cc1 (stereo not given)	10
COc1ccc(C2CC(c3ccc(F)cc3)=NN2c2cccc(F)c2)cc1OC (stereo not given)	3030
